In PubChem BioAssay (NCI):
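A five-concentration, 48-hour dose response in 96-well plates underlies each endpoint, interpolated linearly between surrounding concentrations. TGI is the concentration that stops growth completely.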

Tests used:
Assay in all cases: NCI-60 cell line screen, 48 h
A549 NSCLC = system: A549 NSCLC
CAKI-1 renal = system: CAKI-1 renal
EKVX NSCLC = system: EKVX NSCLC
HT29 colon = system: HT29 colon
K-562 leukemia = system: K-562 leukemia
KM12 colon = system: KM12 colon
M14 melanoma = system: M14 melanoma
MCF7 breast = system: MCF7 breast
NCI-H23 lung = system: NCI-H23 lung
NCI/ADR-RES ovarian = system: NCI/ADR-RES ovarian
OVCAR-4 ovarian = system: OVCAR-4 ovarian
OVCAR-5 ovarian = system: OVCAR-5 ovarian
OVCAR-8 ovarian = system: OVCAR-8 ovarian
RXF 393 renal = system: RXF 393 renal
SF-295 CNS = system: SF-295 CNS
SF-539 CNS = system: SF-539 CNS
SK-MEL-2 melanoma = system: SK-MEL-2 melanoma
SK-MEL-28 melanoma = system: SK-MEL-28 melanoma
UO-31 renal = system: UO-31 renal
NCI-H460 lung = system: NCI-H460 lung

SMILES | TGI (A549 NSCLC) | TGI (CAKI-1 renal) | TGI (EKVX NSCLC) | TGI (HT29 colon) | TGI (K-562 leukemia) | TGI (KM12 colon) | TGI (M14 melanoma) | TGI (MCF7 breast) | TGI (NCI-H23 lung) | TGI (NCI/ADR-RES ovarian) | TGI (OVCAR-4 ovarian) | TGI (OVCAR-5 ovarian) | TGI (OVCAR-8 ovarian) | TGI (RXF 393 renal) | TGI (SF-295 CNS) | TGI (SF-539 CNS) | TGI (SK-MEL-2 melanoma) | TGI (SK-MEL-28 melanoma) | TGI (UO-31 renal) | TGI (NCI-H460 lung)
CCO/C=N\C1=C(C#N)SC2=N/C(=C\c3ccco3)C(=O)N21 | > 100 µM | > 100 µM | > 100 µM | > 100 µM | > 100 µM | > 100 µM | > 100 µM | > 100 µM | > 100 µM | > 100 µM | > 100 µM | > 100 µM | > 100 µM | > 100 µM | > 100 µM | > 100 µM | > 100 µM | > 100 µM | > 100 µM | –
COc1cc(N(CCC#N)CCC#N)ccc1/C(N=Nc1cccc([N+](=O)[O-])c1)=N\NC(=O)c1ccc(C)cc1 | > 100 µM | > 100 µM | 63.1 µM | > 100 µM | > 100 µM | > 100 µM | > 100 µM | > 100 µM | > 100 µM | > 100 µM | > 100 µM | > 100 µM | > 100 µM | > 100 µM | > 100 µM | – | > 100 µM | > 100 µM | > 100 µM | 70.5 µM
O=c1[nH]nc(Nc2ccc(Cl)cc2)c2nnn(-c3ccc([N+](=O)[O-])cc3)c12 | 29.1 µM | > 100 µM | > 100 µM | > 100 µM | 29.9 µM | > 100 µM | > 100 µM | 47.4 µM | 24.9 µM | > 100 µM | > 100 µM | > 100 µM | 48 µM | – | > 100 µM | 39.6 µM | 82.2 µM | – | – | > 100 µM
COc1ccc(CCN2C(=O)C(=O)C(C(=O)c3ccccc3)C2c2ccccc2)cc1OC (stereo not drawn) | > 100 µM | > 100 µM | > 100 µM | > 100 µM | > 100 µM | > 100 µM | > 100 µM | > 100 µM | > 100 µM | > 100 µM | – | > 100 µM | > 100 µM | > 100 µM | > 100 µM | > 100 µM | > 100 µM | > 100 µM | > 100 µM | > 100 µM
CC(=O)OCC1OC(NC(=S)Nn2c(-c3ccccc3)nc3ccccc3c2=O)C(OC(C)=O)C(OC(C)=O)C1OC(C)=O (stereo not drawn) | > 100 µM | > 100 µM | > 100 µM | > 100 µM | > 100 µM | > 100 µM | > 100 µM | > 100 µM | > 100 µM | > 100 µM | – | > 100 µM | > 100 µM | > 100 µM | > 100 µM | > 100 µM | 68.3 µM | > 100 µM | > 100 µM | > 100 µM
CN1CN(c2ccccc2)C2(CCN(CCCN(C)c3ccc(F)cc3)CC2)C1=O | 65.9 µM | 86.4 µM | – | 22.6 µM | 30.1 µM | 31.3 µM | 30.7 µM | 29.2 µM | 44.1 µM | 51.3 µM | – | 41.8 µM | 45.2 µM | 46.2 µM | 28.3 µM | 39.7 µM | 33.5 µM | 37.9 µM | 40.3 µM | 32.9 µM
C/C(=C\COP(=O)(O)CP(=O)(O)O)CC/C=C(\C)CNc1ccccc1 | > 100 µM | > 100 µM | 30.3 µM | > 100 µM | > 100 µM | > 100 µM | > 100 µM | > 100 µM | > 100 µM | > 100 µM | – | > 100 µM | > 100 µM | > 100 µM | > 100 µM | > 100 µM | > 100 µM | > 100 µM | > 100 µM | > 100 µM
COCc1nc(C#N)c(N)o1 | > 10 µM | > 10 µM | > 10 µM | > 10 µM | > 10 µM | > 10 µM | > 10 µM | > 10 µM | > 10 µM | > 10 µM | > 10 µM | – | > 10 µM | > 10 µM | > 10 µM | > 10 µM | – | > 10 µM | > 10 µM | > 10 µM
CC(C)c1cc(C(C)C)c(S(=O)(=O)N/N=C2\CC3CCC2(C)C3(C)C)c(C(C)C)c1 (stereo not drawn) | > 100 µM | > 100 µM | 71.5 µM | 43.8 µM | > 100 µM | > 100 µM | > 100 µM | 30.7 µM | > 100 µM | > 100 µM | > 100 µM | > 100 µM | > 100 µM | 58.5 µM | 63.9 µM | – | > 100 µM | > 100 µM | > 100 µM | –
CC(=O)OCC1OC(Sc2nc(-c3ccccc3)c(C#N)c(=O)n2C2OC(COC(C)=O)C(OC(C)=O)C(OC(C)=O)C2OC(C)=O)C(OC(C)=O)C(OC(C)=O)C1OC(C)=O (stereo not drawn) | > 100 µM | > 100 µM | > 100 µM | > 100 µM | > 100 µM | > 100 µM | > 100 µM | > 100 µM | > 100 µM | > 100 µM | – | > 100 µM | > 100 µM | > 100 µM | > 100 µM | > 100 µM | > 100 µM | > 100 µM | > 100 µM | > 100 µM
NS(=O)(=O)c1ccc(NCc2cccc3c(=O)c4ccc(Cl)cc4oc23)cc1 | > 100 µM | > 85.7 µM | > 65.5 µM | > 100 µM | > 100 µM | > 70.7 µM | > 93.1 µM | > 67 µM | > 80 µM | > 100 µM | > 100 µM | > 100 µM | > 67.2 µM | > 100 µM | > 100 µM | > 64.6 µM | > 100 µM | > 100 µM | > 93.2 µM | –
COC(=O)[C@@H](N1C(=O)c2ccccc2C1=O)C1(C)CC(Cl)=NO1 (stereo partly drawn) | > 100 µM | 83.7 µM | > 100 µM | > 100 µM | > 100 µM | > 100 µM | > 100 µM | > 100 µM | > 100 µM | 68.2 µM | > 100 µM | > 100 µM | 37 µM | > 100 µM | 74.3 µM | – | > 100 µM | > 100 µM | > 100 µM | > 100 µM
